# Source: patent US4585777A, “(-)-Trans-4-(4-fluorophenyl)-3-(4-methoxyphenoxy)methylpiperidine for potentiating 5-HT” (A/S Ferrosan, priority 1984, dated 1986)
# Legend:
# 5-HT uptake = assay: Potentiation of 5-HTP (5-Hydroxytryptophane) induced hypermotility in mice (Procedure/Test 173); 5-HT potentiation or 5-HT uptake-inhibition; format: in vivo, mice (female, NMRI strain); settings: for ED (2-fold activity of controls): Mus musculus, sc, read-out: Test 173: dose increasing the activity to double the activity of controls receiving 5-HTP alone (ED), mice, s.c.; for FG 7080 is better by: 5-HT Potentiation Factor: factor by which FG 7080 is better than the listed compound; for FG 7080 is better by: 5-HT Potentiation %: percent by which FG 7080 is better than the listed compound
# Source text: (§1) (J. Buus Lassen, European Journal of Pharmacology 47, 351-358 (1978)). See also Squires in Acta Pharmacol. et Toxicol, 1972, 31 Suppl. 1,35 for a description of a further procedure for measurement of the same 5-HT uptake-inhibitory phenomenon.
# I. Potentiation of 5-HTP (5-Hydroxytryptophane) induced hypermotility in mice (Procedure 173)
# (§2) This behavior is characterized by continuous jerky locomotion, head movements from side to side, abduction of the hind limbs, tremor, and lordosis.
# Measurement of the motility after administration of test drugs to 5-HTP-pretreated mice is therefore used as a test for 5-HT-potentiation, which most probably proceeds through an inhibition of 5-HT uptake.
# Method: Female mice of the NMRI strain weighing 20-22 g are used. The controls receive 5-HTP 150 mg/kg (15 ml/kg) i.p. (i.p.=intraperitoneally) and thirty (30) minutes later physiological saline (20 ml/kg) s.c. (s.c.=subcutaneously). The motility is measured by an Animex™ motimeter 45-75 minutes after 5-HTP administration. The test animals received test substances s.c. (20 ml/kg) instead of physiological saline. Five groups of two (2) mice are used for control and per dose of each test drug. the test substance is dosed according to the dose scale 1, 1.6, 2.5, 4, 6.3, and 10 mg/kg etc.
# The best straight line is fitted through the points in a coordinate system (abscissa log dose, ordinate log activity). […] The activity of controls is investigated in thirty (30) groups of two (2) mice.
# [1] = Acute Toxicity in Mice (Procedure/Test 001); format: in vivo; settings: mouse, in vivo, sc, lethality at 24 hours, water-soluble salt
# Source text: (§3) II. Acute Toxicity in Mice (Procedure 001)
# (§4) Results are expressed as LD50 = . . . mg/kg s.c.
# in vivo = settings: mouse, in vivo, sc, TI (Therapeutic Index), 001/173, LD50/ED50, mice s.c.
# Source text: as §1
# mice [2] = assay: Acute Toxicity in Mice (Procedure/Test 001); format: in vivo; settings: s.c., lethality at 24 hours, water-soluble salt, 1440 min
# Source text: as §3, §4
# mice [3] = assay: in vivo; settings: for TI (Therapeutic Index), 001/173: LD50/ED50, mice s.c.; for FG 7080 is better by: T.I. Factor: factor by which FG 7080 is better than the listed compound; for FG 7080 is better by: T.I. %: percent by which FG 7080 is better than the listed compound
# Source text: as §1
# mice [4] = assay: Locomotor activity / behavior in mice after 5-HTP, with or without pretreatment (background of Procedure 173); format: in vivo
# Source text: as §2
# Therefore, increased 5-HT in brain seems to be necessary for development of the abnormal behavior, but catecholamine release is probably not related to hyperactivity.
# [5] = References 1-4, cited from earlier work
# mice [6] = settings: Reference 6; cited from earlier work
# [7] = 5-HTP 150 mg/kg i.p. 30 min before, motility 45-75 min after 5-HTP, water-soluble salt
# [8] = versus (+) trans isomer FG 8035
structure (smiles),measurement,setting,value
"CN1CC[C@@H](c2ccc(F)cc2)[C@H](COc2ccc3c(c2)OCO3)C1 (single isomer, unassigned) [FG 7043, reference compound]",ED (2-fold activity of controls),5-HT uptake; [7],4 mg/kg
same,LD50 at 24 h,[1],250 mg/kg
same,selectivity ratio,in vivo,63
"COc1ccc(OC[C@@H]2CN(C)CC[C@H]2c2ccccc2)cc1 (single isomer, unassigned) [FG 4962, reference compound]",FG 7080 is better by: 5-HT Potentiation Factor,5-HT uptake,3.8
same,Test 173: dose increasing the activity to double the activity of controls receiving 5-HTP alone (ED),"5-HT uptake; mice, s.c., 5-HTP 150 mg/kg i.p. 30 min before, motility 45-75 min after 5-HTP, water-soluble salt",3.8 mg/kg
same,FG 7080 is better by: 5-HT Potentiation %,5-HT uptake,380%
same,Test 001: LD50,mice [2],200 mg/kg
same,"TI (Therapeutic Index), 001/173",mice [3],53
same,FG 7080 is better by: T.I. Factor,mice [3],19.87
same,FG 7080 is better by: T.I. %,mice [3],1887%
"N[C@@H](Cc1c[nH]c2ccc(O)cc12)C(=O)O [5-HTP, 5-Hydroxytryptophane]",motility / locomotor activity,mice [4]; 5-HTP 150 mg/kg,producing a small decrease of motility
same,motility / locomotor activity,mice [4]; 5-HTP 600 mg/kg,increasing the activity
same,concentration of NA and DA,"[5]; high doses, parenteral",decrease the concentration of NA and DA
same,brain concentration of 5-HT,[5]; parenteral treatment,increases the brain concentration of 5-HT
CC(N)(Cc1ccc(O)cc1)C(=O)O (stereo not drawn) [α-methyl-p-tyrosine],effect of pretreatment on the hyperactivity (5-HTP plus 5-HT-uptake blocker),mice [6],does not influence this hyperactivity
"COc1ccc(OC[C@@H]2CNCC[C@H]2c2ccccc2)cc1 (single isomer, unassigned) [FG 4996, reference compound]",ED (2-fold activity of controls),5-HT uptake; [7],9 mg/kg
same,Test 001: LD50,mice [2],125 mg/kg
same,selectivity ratio,in vivo,14
NNCc1cccc(O)c1 [3-hydroxybenzylhydrazine],effect of pretreatment on the hyperactivity (5-HTP plus 5-HT-uptake blocker),mice [6],inhibited it significantly
"Fc1ccc([C@@H]2CCNC[C@H]2COc2ccc3c(c2)OCO3)cc1 (single isomer, unassigned) [FG 7051]",LD50 at 24 h,[1],285 mg/kg
COc1ccc(OC[C@@H]2CN(C)CC[C@H]2c2ccc(F)cc2)cc1 (relative stereo) [FG 98-I],ED (2-fold activity of controls),5-HT uptake; [7],1.3 mg/kg
same,FG 7080 is better by: 5-HT Potentiation Factor,5-HT uptake,1.3
same,FG 7080 is better by: 5-HT Potentiation %,5-HT uptake,130%
same,LD50 at 24 h,[1],600 mg/kg
same,FG 7080 is better by: T.I. Factor,mice [3],2.17
same,FG 7080 is better by: T.I. %,mice [3],217%
same,selectivity ratio,in vivo,461
"COc1ccc(OC[C@@H]2CN(C)CC[C@H]2c2ccc(F)cc2)cc1.Cl (single isomer, unassigned) [FG 8032, (+)-trans-4-(4-fluorophenyl)-3-[(4-methoxyphenoxy)methyl]-1-methylpiperidine hydrochloride]",ED (2-fold activity of controls),5-HT uptake; [7],23 mg/kg
same,FG 7080 is better by: 5-HT Potentiation Factor,5-HT uptake,23
same,FG 7080 is better by: 5-HT Potentiation %,5-HT uptake,2300%
same,LD50 at 24 h,[1],400 mg/kg
same,"TI (Therapeutic Index), 001/173",mice [3],17
same,FG 7080 is better by: T.I. Factor,mice [3],58.82
same,FG 7080 is better by: T.I. %,mice [3],5882%
"COc1ccc(OC[C@@H]2CNCC[C@H]2c2ccc(F)cc2)cc1 (single isomer, unassigned) [FG 7080, (-)-trans-4-(4-fluorophenyl)-3-(4-methoxyphenoxy)methylpiperidine]",ED (2-fold activity of controls),5-HT uptake; [7],1 mg/kg
same,"5-HT potentiation compared with most structurally closely-related compounds, in words",5-HT uptake; Table I comparison,remarkably and unpredictably superior
same,times as active in 5-HT potentiation,5-HT uptake; [8],approximately 22 times
same,"times as active in 5-HT potentiation, as %",5-HT uptake; [8],~2200%
same,"superior as to 5-HT potentiation, as %",5-HT uptake; versus FG 4996,~900%
same,superior by a factor as to 5-HT potentiation,5-HT uptake; versus FG 4996,approximately 9 times
same,"5-HT potentiation activity, as %",5-HT uptake; versus FG 7006,~2000%
same,"5-HT potentiation activity, times as great",5-HT uptake; versus FG 7006,approximately 20 times
same,LD50 at 24 h,[1],1000 mg/kg
same,"TI (Therapeutic Index), 001/173",mice [3],1000
same,"Therapeutic Index compared with most structurally closely-related compounds, in words",mice [3]; Table I comparison,even more remarkably and unpredictably superior
same,"superior as to Therapeutic Index, as %",mice [3]; versus FG 4996,> 7100%
same,superior by a factor as to Therapeutic Index,mice [3]; versus FG 4996,greater than 71 times
same,"Therapeutic Index, as %",mice [3]; versus FG 7006,> 5500%
same,"Therapeutic Index, times as great",mice [3]; versus FG 7006,more than 55 times
same,"Therapeutic Index, as %",mice [3]; versus FG 8035,> 4100%
same,"Therapeutic Index, times as great",mice [3]; versus FG 8035,more than 41 times
"CC(=O)O.COc1ccc(OC[C@@H]2CNCC[C@H]2c2ccc(F)cc2)cc1 (single isomer, unassigned) [FG 8035, (+)-trans-4-(4-fluorophenyl)-3-((4-methoxyphenoxy)methyl)piperidine acetate]",ED (2-fold activity of controls),5-HT uptake; [7],22 mg/kg
same,LD50 at 24 h,[1],530 mg/kg
same,"TI (Therapeutic Index), 001/173",mice [3],24
"COc1ccc(OC[C@@H]2CN(C)CC[C@H]2c2ccc(F)cc2)cc1 (single isomer, unassigned) [FG 8033, (-)-trans-4-(4-fluorophenyl)-3-[(4-methoxyphenoxy)-methyl]-1-methyl-piperidine]",ED (2-fold activity of controls),5-HT uptake; [7],0.5 mg/kg
same,LD50 at 24 h,[1],400 mg/kg
same,"TI (Therapeutic Index), 001/173",mice [3],800
"COc1ccc(OC[C@@H]2CN(C)CC[C@H]2c2ccccc2)cc1 (single isomer, unassigned) [FG 4963, reference compound]",ED (2-fold activity of controls),5-HT uptake; [7],2.8 mg/kg
same,FG 7080 is better by: 5-HT Potentiation Factor,5-HT uptake,2.8
same,FG 7080 is better by: 5-HT Potentiation %,5-HT uptake,280%
same,LD50 at 24 h,[1],375 mg/kg
same,"TI (Therapeutic Index), 001/173",mice [3],134
same,FG 7080 is better by: T.I. Factor,mice [3],7.46
same,FG 7080 is better by: T.I. %,mice [3],746%
"COc1ccc(OC[C@@H]2CN(C)CC[C@H]2c2ccccc2)cc1 (relative stereo) [FG 4932, reference compound]",ED (2-fold activity of controls),5-HT uptake; [7],7.7 mg/kg
same,LD50 at 24 h,[1],100 mg/kg
same,selectivity ratio,in vivo,13
